The experiment deals with T1, ABCG2 (Homo sapiens, UniProt Q9UNQ0).
T1 construct: Recombinant ABCG2
T1 sequence (Q9UNQ0 1-655): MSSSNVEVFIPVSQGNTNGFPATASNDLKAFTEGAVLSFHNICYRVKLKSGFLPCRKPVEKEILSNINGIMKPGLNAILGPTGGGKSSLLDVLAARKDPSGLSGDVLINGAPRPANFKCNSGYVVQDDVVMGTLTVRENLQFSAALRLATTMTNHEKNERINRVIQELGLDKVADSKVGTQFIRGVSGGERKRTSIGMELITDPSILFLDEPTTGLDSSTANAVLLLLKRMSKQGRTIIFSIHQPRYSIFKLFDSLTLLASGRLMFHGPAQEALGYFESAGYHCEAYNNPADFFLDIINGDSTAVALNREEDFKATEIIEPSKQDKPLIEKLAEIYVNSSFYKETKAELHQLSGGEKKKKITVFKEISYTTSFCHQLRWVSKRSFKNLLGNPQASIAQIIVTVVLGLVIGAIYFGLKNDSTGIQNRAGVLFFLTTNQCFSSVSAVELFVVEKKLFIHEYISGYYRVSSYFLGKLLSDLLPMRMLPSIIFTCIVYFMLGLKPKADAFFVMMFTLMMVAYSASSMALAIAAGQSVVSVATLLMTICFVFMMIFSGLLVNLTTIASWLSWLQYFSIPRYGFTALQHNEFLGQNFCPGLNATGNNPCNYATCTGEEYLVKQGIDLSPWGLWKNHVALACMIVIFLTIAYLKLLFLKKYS
It counts as binding.

For the compound `COc1cc2ccc(=O)oc2c(O[C@@H]2O[C@H](CO)[C@@H](O)[C@H](O)[C@H]2O)c1O` [fraxin], the Kd came out at 141 µM.

For the origin of these results see PMC10708028, “Target Screen of Anti-Hyperuricemia Compounds from Cortex Fraxini In Vivo Based on ABCG2 and Bioaffinity Ultrafiltration Mass Spectrometry” (Molecules, 2023).
